System: rabbit platelets
Experiment: Platelet aggregation study: anti-aggregating effect on platelets activated with collagen
Format: cell-based
Conditions: Oryctolagus cuniculus, 0.05 h, collagen (2 μl/ml), 37° C., 3 minutes incubation, aggregometer, 1000 rpm, read-out: IC50 (concentration of antagonist necessary to produce 50% inhibition of the aggregating responses to collagen)
Procedure: The study is carried out on rabbit platelets. […] The plasma rich in platelets (PRP) is obtained by centrifuging (20° C.) at 250 g for 20 minutes. The PRP is centrifuged again (1000 g) for 15 minutes and the platelet sediment is again suspended in a saline solution buffered with tris(hydroxymethyl)aminomethane, containing gelatin (0.2%). After centrifuging again (1000 g; 15 min.), the sediment is again suspended in a physiological solution and stored at room temperature.
The anti-aggregating effect of the products is examined on platelets activated with collagen (2 μl/ml). The platelet aggregation is carried out at 37° C. in siliconised glass tubes using an aggregometer (Coultronics). The platelets are stirred at 1000 rpm. To test the antagonist effect, the PRP is incubated for 3 minutes at 37° C. with the substance to be tested. The collagen is then added (2 μl/ml).

| SMILES | IC50 [µM] |
| --- | --- |
| CCCCC/C=C\CC(O)c1cccc(/C=C\CCCC(=O)O)c1 (centres unmarked) [Example 26, Sodium (5Z)-6-{3-[(3Z)-(1-hydroxynon-3-en-1-yl)]phenyl}hex-5-enoate] | 1.8 |
| CCCCCC(O)c1cccc(CCCCCC(=O)O)c1 (centres unmarked) [Example 15, Sodium 6-[3-(1-hydroxyhexyl)phenyl]hexanoate] | 21 |
| CCCCCC#CCC(O)c1cccc(/C=C\CCCC(=O)O)c1 (centres unmarked) [Example 4] | 2.2 |
| CCCCCC(O)c1cccc(/C=C\CCCC(=O)O)c1 (centres unmarked) [Example 12, Sodium (5Z)-6-[3-(1-hydroxyhex-1-yl)phenyl]hex-5-enoate] | 20 |
| CCCCCC(O)c1cccc(/C=C\CCCC(=O)O)n1 (centres unmarked) [Example 18, Sodium (5Z)-6-[6-(1-hydroxyhex-1-yl)pyrid-2-yl]hex-5-enoate] | 30 |
